According to the supplement of paper PMC11208160:

Assay: recombinant barcode read abundance after kanamycin selection (control-corrected) (log10(CPM+1)); higher = more efficient recombination; sequences stand for … in AGTGCAGAGAAAATCGGCCAGTTTTCTCTGCCTGCAGTCCGCATGCCGT…AGATTTATGCAGCGGACTGCCTTTCTCCCAAAGTGATAAACCGGACAGTATCATGGACCGGTTTTCCCGGTAATCCGTATTTGCAAGGTTGGTTTCACT; site = the 11-nt target
Protocol: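 Pooled E. coli target-specificity screen for the IS621 bridge recombinase. Each library plasmid pairs an 11-nt target (CT core) with a bridge RNA whose target-binding loop (9-nt LTG + 4-nt RTG) is reprogrammed; the rest of the 177-nt WT IS621 bridge RNA scaffold is fixed. The plasmid is co-electroporated with a WT donor plasmid; recombinase is induced with 0.1 mM IPTG and recombinants are selected on kanamycin. Recombinant barcodes are sequenced, converted to CPM, averaged over two biological replicates and corrected by the unselected control CPM. Molecule = full bridge RNA written as DNA: LTG = specificity nt 1-9, RTG = reverse complement of specificity nt 8-11, in the WT scaffold.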
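Further: IS621 recombinase and bridge RNA in Escherichia coli cells.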

Sequence | recombinant barcode read abundance (log10)
ACTGATCCTTGGGTTCTAACCTGTTGCCT (site ACTGATGCTAG) | 0.671
ACTGATCCTTGGGTTCTAACCTGTTGCCT (site ACTGATTCTAG) | 0.0263
ACTGGGTCTTGGGTTCTAACCTGTTGCGT (site ACATGGTCTAC) | 0.254
ACTGGGTCTTGGGTTCTAACCTGTTGCGT (site ACTGGGTCTAC) | 2.66
ACTGGGTCTTGGGTTCTAACCTGTTGCTT (site ACTGAGTCTAA) | 0.782
ACTGGGTCTTGGGTTCTAACCTGTTGCTT (site ACTGGGTCTAA) | 1.41
ACTGGTACTTGGGTTCTAACCTGTTGCCT (site ACGGGTACTAG) | 0.161
ACTGGTACTTGGGTTCTAACCTGTTGCCT (site ACTGGTACTAG) | 1.22
ACTGGTCCTTGGGTTCTAACCTGTTGCGG (site ACTGGTCCTCC) | 2.93
ACTGGTCCTTGGGTTCTAACCTGTTGCGG (site GACATATCTAA) | 0.0953
ACTTAGACTTGGGTTCTAACCTGTTGCCA (site ACTTAGACTAG) | 0.502
ACTTAGACTTGGGTTCTAACCTGTTGCCA (site ACTTAGACTCG) | 0.408
ACTTAGACTTGGGTTCTAACCTGTTGCCA (site ACTTAGACTGG) | 0.0414
ACTTAGACTTGGGTTCTAACCTGTTGCCA (site ACTTAGACTTG) | 0.363
ACTTAGACTTGGGTTCTAACCTGTTGCCG (site ACTTAGACTAG) | 0.287
ACTTAGACTTGGGTTCTAACCTGTTGCCG (site ACTTAGACTCG) | 1.29
ACTTAGACTTGGGTTCTAACCTGTTGCCG (site ACTTAGACTGG) | 0.159
ACTTAGACTTGGGTTCTAACCTGTTGCCG (site ACTTAGACTTG) | 0.129
ACTTAGTCTTGGGTTCTAACCTGTTGCTA (site ACATAGTCTCA) | 0.178
ACTTAGTCTTGGGTTCTAACCTGTTGCTA (site ACTTAGTCTTA) | 0.277
ACTTGAGCTTGGGTTCTAACCTGTTGCAG (site ACTTGAGCTCT) | 1.48
ACTTGAGCTTGGGTTCTAACCTGTTGCAG (site CACGCTCCTAC) | 0.167
ACTTGTACTTGGGTTCTAACCTGTTGCAT (site ACTTGGACTAT) | 0.0152
ACTTGTACTTGGGTTCTAACCTGTTGCAT (site ACTTGTACTAT) | 1.22
ACTTTACCTTGGGTTCTAACCTGTTGCCT (site ACTTTACCTAG) | 0.188

Sequence | recombinant barcode read abundance (log10)
ACTTTACCTTGGGTTCTAACCTGTTGCCT (site CCTTTACCTAG) | 0.324
ACTTTACCTTGGGTTCTAACCTGTTGCCT (site GCTTTACCTAG) | 0.0495
ACTTTACCTTGGGTTCTAACCTGTTGCCT (site TCTTTACCTAG) | 0.186
AGAACACCTTGGGTTCTAACCTGTTGCTT (site AGAACACCTAA) | 0.525
AGAACACCTTGGGTTCTAACCTGTTGCTT (site GAGGAGTCTCG) | 0.13
AGAACTACTTGGGTTCTAACCTGTTGCCT (site AGAACTACTAG) | 0.384
AGAACTACTTGGGTTCTAACCTGTTGCCT (site AGGACTACTAG) | 0.162
AGAACTCCTTGGGTTCTAACCTGTTGCGA (site AGAACTCCTTC) | 1.03
AGAACTCCTTGGGTTCTAACCTGTTGCGA (site CTGGAGACTAA) | 0.42
AGAAGATCTTGGGTTCTAACCTGTTGCCT (site AGAAGATCTAG) | 0.706
AGAAGATCTTGGGTTCTAACCTGTTGCCT (site TACCTTACTCT) | 0.0563
AGAAGTCCTTGGGTTCTAACCTGTTGCAG (site AGAAGTCCTCA) | 0.83
AGAAGTCCTTGGGTTCTAACCTGTTGCAG (site AGAAGTCCTCC) | 0.246
AGAAGTCCTTGGGTTCTAACCTGTTGCAG (site AGAAGTCCTCG) | 0.366
AGAAGTCCTTGGGTTCTAACCTGTTGCAG (site AGAAGTCCTCT) | 1.56
AGAATCCCTTGGGTTCTAACCTGTTGCAT (site AGAATCCCTAT) | 1.49
AGAATCCCTTGGGTTCTAACCTGTTGCAT (site ATAAACCCTAT) | 0.0539
AGACAGTCTTGGGTTCTAACCTGTTGCCA (site AGACAGTCTTG) | 0.311
AGACAGTCTTGGGTTCTAACCTGTTGCCA (site GACTGAGCTCC) | 0.0895
AGACGTACTTGGGTTCTAACCTGTTGCCT (site AGACGTACTAG) | 1.65
AGACGTACTTGGGTTCTAACCTGTTGCCT (site AGCCGTACTAG) | 0.102
AGACGTACTTGGGTTCTAACCTGTTGCCT (site AGGCGTACTAG) | 0.128
AGACGTACTTGGGTTCTAACCTGTTGCCT (site AGTCGTACTAG) | 0.0904
AGACGTCCTTGGGTTCTAACCTGTTGCTT (site AGACATCCTAA) | 0.197
AGACGTCCTTGGGTTCTAACCTGTTGCTT (site AGACCTCCTAA) | 0.162

Sequence | recombinant barcode read abundance (log10)
AGACGTCCTTGGGTTCTAACCTGTTGCTT (site AGACGTCCTAA) | 1.03
AGACGTCCTTGGGTTCTAACCTGTTGCTT (site AGACTTCCTAA) | 0.15
AGAGCTCCTTGGGTTCTAACCTGTTGCGG (site AGAGCTCCTCC) | 1.28
AGAGCTCCTTGGGTTCTAACCTGTTGCGG (site AGTGCTCCTCC) | 0.196
AGAGGACCTTGGGTTCTAACCTGTTGCCT (site AGAGGACCTAG) | 2.32
AGAGGACCTTGGGTTCTAACCTGTTGCCT (site TGAGCACCTAG) | 0.213
AGAGGTTCTTGGGTTCTAACCTGTTGCCT (site AAAGGTTCTAG) | 0.141
AGAGGTTCTTGGGTTCTAACCTGTTGCCT (site ACAGGTTCTAG) | 0.0172
AGAGGTTCTTGGGTTCTAACCTGTTGCCT (site AGAGGTTCTAG) | 1.58
AGAGGTTCTTGGGTTCTAACCTGTTGCCT (site ATAGGTTCTAG) | 0.271
AGAGTAACTTGGGTTCTAACCTGTTGCAC (site AGAGTAACTGT) | 2.19
AGAGTAACTTGGGTTCTAACCTGTTGCAC (site TCTCGTTCTTA) | 0.063
AGAGTCCCTTGGGTTCTAACCTGTTGCGG (site AGAGTCCCTCC) | 3.09
AGAGTCCCTTGGGTTCTAACCTGTTGCGG (site AGAGTCTCTCA) | 0.295
AGAGTCTCTTGGGTTCTAACCTGTTGCTG (site AGAGTCCCTCC) | 0.101
AGAGTCTCTTGGGTTCTAACCTGTTGCTG (site AGAGTCTCTCA) | 0.78
AGATACTCTTGGGTTCTAACCTGTTGCCT (site ACATAGTCTAG) | 0.428
AGATACTCTTGGGTTCTAACCTGTTGCCT (site AGATACTCTAG) | 2.66
AGATATACTTGGGTTCTAACCTGTTGCTT (site AGATATACTAA) | 0.167
AGATATACTTGGGTTCTAACCTGTTGCTT (site CACCTGTCTCC) | 0.0796
AGATCTCCTTGGGTTCTAACCTGTTGCGT (site AGATCTCCTAC) | 0.777
AGATCTCCTTGGGTTCTAACCTGTTGCGT (site TCGAAGTCTTA) | 0.0154
AGATGAGCTTGGGTTCTAACCTGTTGCGG (site AAATGGGCTCC) | 0.0978
